Publication PMC6009888, “Design, synthesis, and pharmacological evaluation of 2-amino-5-nitrothiazole derived semicarbazones as dual inhibitors of monoamine oxidase and cholinesterase: effect of the size of aryl binding site” (Journal of Enzyme Inhibition and Medicinal Chemistry, 2017)
Several values for one entry are separate records, joined by “and”; a condition that tells them apart may be missing. Equal entries are not always repeated. Where two headings read alike, the source gives them in different places.

How the values were obtained:
MAO-A = target: T1, MAO-A (Rattus norvegicus, UniProt P21396); test: In vitro MAO-A inhibition assay (rat brain mitochondria, serotonin substrate); format: biochemical; conditions: rat brain mitochondria, serotonin substrate, mean ± SEM, triplicate
T1 construct: employing crude rat brain mitochondrial suspension; from tissue; host or cells: brain mitochondria of adult Wistar rats
T1 sequence (P21396 1-526): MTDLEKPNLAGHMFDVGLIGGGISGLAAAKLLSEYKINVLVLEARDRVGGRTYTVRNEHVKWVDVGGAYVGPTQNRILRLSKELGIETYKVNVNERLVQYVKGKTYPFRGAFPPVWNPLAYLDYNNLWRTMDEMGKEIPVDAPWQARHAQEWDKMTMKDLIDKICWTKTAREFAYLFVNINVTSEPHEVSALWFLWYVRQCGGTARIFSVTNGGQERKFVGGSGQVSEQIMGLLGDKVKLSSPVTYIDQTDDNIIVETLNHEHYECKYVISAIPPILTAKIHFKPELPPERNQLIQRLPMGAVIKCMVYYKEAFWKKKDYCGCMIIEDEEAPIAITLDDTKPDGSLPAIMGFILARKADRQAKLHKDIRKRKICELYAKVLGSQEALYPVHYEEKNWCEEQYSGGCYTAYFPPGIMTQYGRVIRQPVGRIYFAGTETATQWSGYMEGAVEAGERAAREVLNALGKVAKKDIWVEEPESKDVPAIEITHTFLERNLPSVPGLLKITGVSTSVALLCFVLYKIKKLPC
Procedure: (§1) Rat brain mitochondria were used as a source of MAO isoforms. All operations were carried out at 4 °C[50]. Male and female adult Wistar rats weighing 200–220 g were decapitated. All brains were rapidly removed and homogenised with a Potter–Elvehjem homogeniser in cold 0.32 M sucrose and 50 mM Tris-HCl, pH 8.2 (10:1, v/w). The homogenate was centrifuged twice at 1000 g for 5 min at 4 °C. The resulting supernatant was centrifuged at 20,000 g for 20 min. The mitochondrial pellet obtained was suspended in 100 mM sodium phosphate buffer, pH 7.4 (4:1, v/w), fractionated in plastic vials to 500 µl samples and stored at −80 °C. Before use, mitochondria were diluted with 100 mM sodium phosphate buffer to give a working solution of 0.80 mg of protein per millilitre.
(§2) The experiments were carried out under all the suitable laboratory conditions. […] An aliquot was made to contain mixture of 55 µl mitochondrial suspension (0.80 mg of protein/ml), 90 µl 50 mM Tris-HCl buffer, pH 8.2 and 30 µl solubilising solution (control or inhibitor solution at five different concentrations). The reaction was initiated by adding 25 µl of serotonin (4 mM, substrate for MAO-A) and 25 µl benzylamine (0.1 M, substrate for MAO-B) for the determination of MAO-A and MAO-B activity, respectively. The mixture was incubated at 37 °C for 30 min and the reaction was stopped by the addition of 50 µl of 1 N HCl. The absorbance associated with the production of 5-hydroxyindolacetic acid was measured at 280 nm for the estimation of MAO-A while for MAO-B estimation, the absorbance was measured at 250 nm due to the formation of benzaldehyde. All the assays were performed in triplicate. Control experiments were carried out without inhibitor and blanks were run without mitochondrial suspension.
(§3) Data are expressed as mean ± standard error mean (SEM) of experiments performed in triplicate.
(§4) 0, 15, 30 and 60 min at 37 °C in Tris-HCl buffer (50 mM, pH 8.2). […] The reactions were further incubated at 37 °C for a further 15 min and the residual enzyme activities were measured and the bar graphs were constructed. All measurements were carried out in triplicate and are expressed as mean ± SEM.

MAO-B = target: T2, MAO-B (Rattus norvegicus, UniProt P19643); test: biochemical; conditions: for SI (selectivity index for MAO-B): ratio of experimental IC50(MAO-A)/IC50(MAO-B)
T2 construct: employing crude rat brain mitochondrial suspension; from tissue; host or cells: brain mitochondria of adult Wistar rats
T2 sequence (P19643 1-520): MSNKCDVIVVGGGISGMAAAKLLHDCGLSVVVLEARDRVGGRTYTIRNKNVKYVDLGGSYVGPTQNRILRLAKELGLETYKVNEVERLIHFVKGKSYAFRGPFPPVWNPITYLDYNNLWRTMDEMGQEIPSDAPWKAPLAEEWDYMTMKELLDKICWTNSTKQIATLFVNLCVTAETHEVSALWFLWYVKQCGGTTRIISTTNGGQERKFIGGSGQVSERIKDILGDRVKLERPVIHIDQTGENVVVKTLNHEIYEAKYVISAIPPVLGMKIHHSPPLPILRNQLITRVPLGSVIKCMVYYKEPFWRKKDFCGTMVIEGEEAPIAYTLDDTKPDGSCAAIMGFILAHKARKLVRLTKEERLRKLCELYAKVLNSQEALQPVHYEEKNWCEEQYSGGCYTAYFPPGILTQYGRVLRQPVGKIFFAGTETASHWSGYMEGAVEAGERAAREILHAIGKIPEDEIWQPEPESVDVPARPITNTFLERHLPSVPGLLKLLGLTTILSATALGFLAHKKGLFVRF
Procedure: as §1, §2, §3, §4

rat brain AChE = target: T3, rat brain AChE (Rattus norvegicus, UniProt P37136); test: biochemical; format: biochemical; conditions: for IC50: rat brain AChE, ACTI substrate, mean ± SEM, triplicate
T3 construct: the resulting clear supernatants obtained were used as enzyme sources; from tissue; host or cells: rat brain cortex homogenate, 10,000 g supernatant
T3 sequence (P37136 32-614): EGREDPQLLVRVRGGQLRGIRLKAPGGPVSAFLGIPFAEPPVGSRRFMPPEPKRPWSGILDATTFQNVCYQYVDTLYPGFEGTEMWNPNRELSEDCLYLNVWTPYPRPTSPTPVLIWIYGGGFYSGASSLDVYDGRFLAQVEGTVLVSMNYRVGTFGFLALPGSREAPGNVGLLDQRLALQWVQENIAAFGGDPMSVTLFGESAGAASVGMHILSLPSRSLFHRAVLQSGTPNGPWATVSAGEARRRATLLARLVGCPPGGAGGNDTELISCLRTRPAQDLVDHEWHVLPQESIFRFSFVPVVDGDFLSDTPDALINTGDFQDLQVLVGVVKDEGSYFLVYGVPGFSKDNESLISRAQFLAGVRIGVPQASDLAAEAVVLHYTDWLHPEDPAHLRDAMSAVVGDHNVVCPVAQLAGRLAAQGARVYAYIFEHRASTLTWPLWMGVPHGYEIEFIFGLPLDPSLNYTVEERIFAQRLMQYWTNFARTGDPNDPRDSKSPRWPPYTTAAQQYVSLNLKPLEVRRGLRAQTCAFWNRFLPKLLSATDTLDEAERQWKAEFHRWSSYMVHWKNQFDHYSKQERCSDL
Procedure: Rat brain was used as a source of AChE enzyme. Rats were separately decapitated, the brain cortices quickly removed, weighed and homogenised in cold 10 mM Tris-HCl buffer, pH 7.2, containing 160 mM sucrose. The homogenates were centrifuged at 10,000 g for 10 min at 4 °C, and the resulting clear supernatants obtained were used as enzyme sources that were divided into aliquots and stored at −20 °C.
About 30 µl of enzyme sample (AChE) was added to 60 µl of 20 mM sodium phosphate buffer (pH 7.4) and were incubated in the presence of 30 µl of 10 mM DTNB solution with different concentrations of the test compounds. The enzyme reaction was initiated by the addition of 30 µl of 0.8 mM ACTI. The mixtures were incubated for 15 min at 25 °C. […] Control experiments were carried out without inhibitor, and blanks were run without AChE enzyme. All the assays were performed in triplicate. IC50 values were determined using the GraphPad Prism 5.0 (San Diego, CA) and the results were expressed as mean ± SEM.
as §4, with “25” for “37”, “sodium phosphate” for “Tris-HCl”, “(20” for “(50”, “7.4) and DTNB solution (10 mM).” for “8.2).”, “reaction was” for “reactions were”

[1] = In vitro DPPH radical scavenging assay; conditions: test sample 100 µg/ml, 100 µM methanolic DPPH, 30 min, 517 nm
Procedure: Antioxidant activity of the synthesised compounds (10 mg/ml) was evaluated using the radical scavenging capability against the stable free radical, 2,2′-diphenyl-1-picryl hydrazyl (DPPH·). The DPPH· scavenging capability was determined using UV based spectrophotometric assay. About 200 µl of the test sample solution (100 µg/ml) was added to 4 ml of 100 µM methanolic DPPH. […] Ascorbic acid (100 µg/ml) was used as reference. The percentage inhibition of DPPH activity was estimated using the formula: Percent (%) inhibition of DPPH activity = Acontrol-Asample/Acontrol×100 where Acontrol is the absorbance of DPPH· in methanol without an antioxidant and Asample is the absorbance of DPPH· in the presence of an antioxidant.

mice = test: Neurotoxicity screening (rotarod test); format: in vivo; conditions: for Neurotoxicity (animals that exhibit toxicity / animals tested): 30 mg/kg i.p.
Procedure: The neurotoxicity screening was undertaken according to the method followed by the National Institute of Health, using their reported procedures[55]^,[56]. Male albino mice (CF-1 strain or Swiss, 18–25 g) were used as experimental animals. The animals were housed in metabolic cages, and allowed free access to food and water. The test compounds were suspended in 0.5% methylcellulose/water mixture or in polyethylene glycol (PEG 200).
Minimal motor impairment was measured in mice by the rotarod test. The mice were trained to stay on an accelerating rotarod that rotates at six revolutions per minute. The rod diameter was 3.2 cm. Trained animals were given i.p. injection of the selected inhibitors at a dose of 30 mg/kg. Neurotoxicity was indicated by the inability of the animal to maintain equilibrium on the rod for at least 1 min in each of the three trials.

[2] = read-out: MAO-A In vitro IC50 (µM) ± SEM
[3] = read-out: AChE In vitro IC50 (µM) ± SEM

SMILES	IC50 (MAO-A; [2])	IC50 (MAO-B) [µM]	SI (selectivity index for MAO-B) (MAO-B)	IC50 (rat brain AChE; [3]) [µM]	logP (physchem; octanol/water)	% inhibition of DPPH activity [1] [%]	Neurotoxicity (animals that exhibit toxicity / animals tested) (mice; 0.5 h)	Neurotoxicity (animals that exhibit toxicity / animals tested) (mice; 1 h)	Neurotoxicity (animals that exhibit toxicity / animals tested) (mice; 2 h)	Neurotoxicity (animals that exhibit toxicity / animals tested) (mice; 4 h)	further results
O=C(NN=Cc1ccc(O)cc1)Nc1ncc([N+](=O)[O-])s1 [Compound 11, 1-(4-Hydroxybenzylidene)-4-(5-nitrothiazol-2-yl)semicarbazide]	11340 ± 11.7 µM	241.5 ± 2.31	46.96	584 ± 7.92	1.6						
O=C1O[C@H]([C@@H](O)CO)C(O)=C1O [Ascorbic acid, reference compound]						61.24					
O=C(NN=C(CBr)c1ccc(Br)cc1)Nc1ncc([N+](=O)[O-])s1 [Compound 9, 1-(2-Bromo-1-(4-bromophenyl)ethylidene)-4-(5-nitrothiazol-2-yl)semicarbazide]	314 ± 1.89 µM	0.313 ± 0.007	1003.19	3.926 ± 0.014		35.89	2/4	1/4	0/4	0/4	Neurotoxicity (verdict in words) (mice; 30 mg/kg, relative to phenytoin): moderately neurotoxic
COc1ccc(OC)c(C=NNC(=O)Nc2ncc([N+](=O)[O-])s2)c1 [Compound 15, 1-(2,5-Dimethoxybenzylidene)-4-(5-nitrothiazol-2-yl)semicarbazide]	> 100 µM and 55000 µM	11.1 ± 0.19	4945.91	872 ± 4.38		10.58					
CC(=NNC(=O)Nc1ncc([N+](=O)[O-])s1)c1ccc(F)cc1 [Compound 6, 1-(1-(4-Fluorophenyl)ethylidene)-4-(5-nitrothiazol-2-yl)semicarbazide]	> 100 µM and 46100 µM	19.89 ± 0.032	2316.04	468 ± 4.98	1.3	30.43					AChE: fold decrease in activity versus bromo substitution (compound 4) (rat brain AChE; halogen at carbimino terminal phenyl ring): > 1000 fold
O=C(NN=Cc1c(Cl)cccc1Cl)Nc1ncc([N+](=O)[O-])s1 [Compound 14, 1-(2,6-Dichlorobenzylidene)-4-(5-nitrothiazol-2-yl)semicarbazide]	13910 ± 19.7 µM	16.9 ± 0.37	821.43	10.7 ± 0.56	3.1	55.29					MAO-B: fold less active than compound 13 (MAO-B; isomeric dichloro derivatives): ~4.85 fold
CC(=NNC(=O)Nc1ncc([N+](=O)[O-])s1)c1ccc(O)cc1 [Compound 7, 1-(1-(4-Hydroxyphenyl)ethylidene)-4-(5-nitrothiazol-2-yl)semicarbazide]	5899 ± 9.84 µM	14.75 ± 0.018	399.93	12.7 ± 0.62	1.2		0/4	0/4	0/4	0/4	MAO-B: fold greater potency relative to compound 11 (MAO-B; ratio of IC50 values): ~16.37 fold; AChE: fold greater potency relative to compound 11 (rat brain AChE; ratio of IC50 values): ~46 fold
O=C1NC(=O)C(c2ccccc2)(c2ccccc2)N1 [Phenytoin, reference compound]							0/4	0/4	0/4	0/2	
O=C(NN=Cc1ccc(Br)cc1)Nc1ncc([N+](=O)[O-])s1 [Compound 10, 1-(4-Bromobenzylidene)-4-(5-nitrothiazol-2-yl)semicarbazide]	5153 ± 8.82 µM	5.451 ± 0.009	945.33	96.4 ± 2.81	2.5						
CC(=NNC(=O)Nc1ncc([N+](=O)[O-])s1)c1ccc([N+](=O)[O-])cc1 [Compound 8, 1-(1-(4-Nitrophenyl)ethylidene)-4-(5-nitrothiazol-2-yl)semicarbazide]		23.88 ± 0.022	114.86			11.60					IC50 (MAO-A; MAO-A In vitro IC50 (µM) ± SEM): 2743 ± 3.65 µM; IC50 (rat brain AChE; AChE In vitro IC50 (µM) ± SEM): 45.5 ± 1.36 µM; logP (physchem): 1.4
